Measured values published in the NIST ThermoML archive (doi:10.1016/j.jct.2018.07.011).

Test: relative permittivity at various frequencies (dimensionless)
Settings: Reentrant cavity resonator

C=C(F)C(F)(F)F [2,3,3,3-tetrafluoro-1-propene]
Settings	relative permittivity
248.51 K, 10580 kPa, Liquid, Frequency=120 MHz	11.2191
248.71 K, 8271 kPa, Liquid, Frequency=120 MHz	11.1539
248.95 K, 6475 kPa, Liquid, Frequency=120 MHz	11.0761
249.16 K, 4746 kPa, Liquid, Frequency=120 MHz	11.0131
249.37 K, 3089 kPa, Liquid, Frequency=120 MHz	10.9467
249.67 K, 10580 kPa, Liquid, Frequency=120 MHz	11.1976
249.71 K, 8272 kPa, Liquid, Frequency=120 MHz	11.1217
249.75 K, 6476 kPa, Liquid, Frequency=120 MHz	11.0617
249.76 K, 4750 kPa, Liquid, Frequency=120 MHz	10.9998
249.77 K, 3089 kPa, Liquid, Frequency=120 MHz	10.9379
273.14 K, 10470 kPa, Liquid, Frequency=120 MHz	9.47583
273.41 K, 10970 kPa, Liquid, Frequency=120 MHz	9.48739
273.5 K, 7893 kPa, Liquid, Frequency=120 MHz	9.37498
273.59 K, 8235 kPa, Liquid, Frequency=120 MHz	9.38477
273.69 K, 4628 kPa, Liquid, Frequency=120 MHz	9.24224
273.79 K, 5794 kPa, Liquid, Frequency=120 MHz	9.28399
273.95 K, 1601 kPa, Liquid, Frequency=120 MHz	9.10293
274.32 K, 3368 kPa, Liquid, Frequency=120 MHz	9.17004
275.05 K, 1116 kPa, Liquid, Frequency=120 MHz	9.04939
297.54 K, 7675 kPa, Liquid, Frequency=120 MHz	7.93035
297.56 K, 247.8 kPa, Gas, Frequency=340 MHz	1.03846
297.57 K, 4942 kPa, Liquid, Frequency=120 MHz	7.79441
297.57 K, 10760 kPa, Liquid, Frequency=120 MHz	8.06626
297.58 K, 2537 kPa, Liquid, Frequency=120 MHz	7.65994
297.61 K, 259.6 kPa, Gas, Frequency=340 MHz	1.04022
297.63 K, 225.5 kPa, Gas, Frequency=340 MHz	1.03469
297.67 K, 100.9 kPa, Gas, Frequency=340 MHz	1.01502
321.5 K, 203 kPa, Gas, Frequency=340 MHz	1.02682
321.53 K, 644.4 kPa, Gas, Frequency=340 MHz	1.09027
321.55 K, 817.8 kPa, Gas, Frequency=340 MHz	1.11132
321.63 K, 4262 kPa, Liquid, Frequency=120 MHz	6.51012
321.65 K, 7089 kPa, Liquid, Frequency=120 MHz	6.70204
321.65 K, 10590 kPa, Liquid, Frequency=120 MHz	6.89633
345.73 K, 218.5 kPa, Gas, Frequency=340 MHz	1.02515
345.74 K, 874.9 kPa, Gas, Frequency=340 MHz	1.10115
345.75 K, 693 kPa, Gas, Frequency=340 MHz	1.08291
345.89 K, 4404 kPa, Liquid, Frequency=120 MHz	5.30782
345.93 K, 6822 kPa, Liquid, Frequency=120 MHz	5.57121
346.01 K, 10290 kPa, Liquid, Frequency=120 MHz	5.83949
365.22 K, 908.6 kPa, Gas, Frequency=340 MHz	1.09359
365.25 K, 713.8 kPa, Gas, Frequency=340 MHz	1.07604
365.3 K, 230.9 kPa, Gas, Frequency=340 MHz	1.0241

[Ar] [argon]
Gas, Frequency=340 MHz
Settings	relative permittivity
272.94 K, 8533 kPa	1.05077
273.04 K, 5986 kPa	1.03462
273.17 K, 3359 kPa	1.01869
297.44 K, 9503 kPa	1.05146
297.45 K, 3675 kPa	1.01893
297.45 K, 6614 kPa	1.03509
321.92 K, 4005 kPa	1.01899
321.93 K, 7248 kPa	1.03523

O=C=O [carbon dioxide]
Settings	relative permittivity
234.7 K, 5002 kPa, Liquid, Frequency=270 MHz	1.73109
234.76 K, 4012 kPa, Liquid, Frequency=270 MHz	1.729
234.77 K, 2015 kPa, Liquid, Frequency=270 MHz	1.72473
234.78 K, 3015 kPa, Liquid, Frequency=270 MHz	1.72689
235.13 K, 6031 kPa, Liquid, Frequency=270 MHz	1.73287
248.98 K, 4006 kPa, Liquid, Frequency=270 MHz	1.68089
249.12 K, 3018 kPa, Liquid, Frequency=270 MHz	1.67791
249.15 K, 2012 kPa, Liquid, Frequency=270 MHz	1.67486
251.38 K, 6015 kPa, Liquid, Frequency=270 MHz	1.68401
251.72 K, 5017 kPa, Liquid, Frequency=270 MHz	1.6809
252.7 K, 6996 kPa, Liquid, Frequency=270 MHz	1.685
273.6 K, 7004 kPa, Liquid, Frequency=270 MHz	1.59893
273.75 K, 6019 kPa, Liquid, Frequency=270 MHz	1.5936
274.12 K, 5019 kPa, Liquid, Frequency=270 MHz	1.58749
274.66 K, 4024 kPa, Liquid, Frequency=270 MHz	1.58054
297.38 K, 1176 kPa, Gas, Frequency=340 MHz	1.01138
297.57 K, 7002 kPa, Liquid, Frequency=270 MHz	1.45192
297.6 K, 5992 kPa, Gas, Frequency=340 MHz	1.10291
297.61 K, 6991 kPa, Liquid, Frequency=270 MHz	1.45145
297.64 K, 2005 kPa, Gas, Frequency=340 MHz	1.02052
297.7 K, 3002 kPa, Gas, Frequency=340 MHz	1.03319
297.73 K, 3998 kPa, Gas, Frequency=340 MHz	1.0487
297.75 K, 4570 kPa, Gas, Frequency=340 MHz	1.05962

F/C=C/C(F)(F)F [trans-1,3,3,3-tetrafluoropropene]
Settings	relative permittivity
248.98 K, 2078 kPa, Liquid, Frequency=200 MHz	3.44336
249 K, 4121 kPa, Liquid, Frequency=200 MHz	3.45458
249.02 K, 6251 kPa, Liquid, Frequency=200 MHz	3.46583
249.06 K, 8448 kPa, Liquid, Frequency=200 MHz	3.47696
249.07 K, 10680 kPa, Liquid, Frequency=200 MHz	3.48805
273.01 K, 7894 kPa, Liquid, Frequency=200 MHz	3.19554
273.19 K, 10470 kPa, Liquid, Frequency=200 MHz	3.21071
273.23 K, 4627 kPa, Liquid, Frequency=200 MHz	3.17426
273.36 K, 1598 kPa, Liquid, Frequency=200 MHz	3.15254
273.46 K, 486 kPa, Liquid, Frequency=200 MHz	3.14403
273.66 K, 73.9 kPa, Gas, Frequency=340 MHz	1.00498
274.29 K, 139 kPa, Gas, Frequency=340 MHz	1.00927
297.59 K, 79.6 kPa, Gas, Frequency=340 MHz	1.00458
297.59 K, 240.4 kPa, Gas, Frequency=340 MHz	1.01364
297.6 K, 349.7 kPa, Gas, Frequency=340 MHz	1.02033
297.63 K, 5735 kPa, Liquid, Frequency=200 MHz	2.92689
297.63 K, 10470 kPa, Liquid, Frequency=200 MHz	2.96416
297.64 K, 140.5 kPa, Gas, Frequency=340 MHz	1.00794
297.65 K, 7982 kPa, Liquid, Frequency=200 MHz	2.94513
297.67 K, 1491 kPa, Liquid, Frequency=200 MHz	2.88752
297.67 K, 3490 kPa, Liquid, Frequency=200 MHz	2.90668
321.55 K, 211.2 kPa, Gas, Frequency=340 MHz	1.01063
321.63 K, 210.1 kPa, Gas, Frequency=340 MHz	1.0105
321.76 K, 3999 kPa, Liquid, Frequency=200 MHz	2.66845
321.78 K, 7249 kPa, Liquid, Frequency=200 MHz	2.70714
321.79 K, 10980 kPa, Liquid, Frequency=200 MHz	2.74469
345.96 K, 227.2 kPa, Gas, Frequency=340 MHz	1.01022
345.97 K, 225.2 kPa, Gas, Frequency=340 MHz	1.01005
346.5 K, 4377 kPa, Liquid, Frequency=200 MHz	2.42553
346.53 K, 6645 kPa, Liquid, Frequency=200 MHz	2.46858
346.59 K, 9481 kPa, Liquid, Frequency=200 MHz	2.51185
365.54 K, 236.9 kPa, Gas, Frequency=340 MHz	1.00981
365.79 K, 239.2 kPa, Gas, Frequency=340 MHz	1.00997
365.83 K, 4248 kPa, Liquid, Frequency=200 MHz	2.19675
365.87 K, 6046 kPa, Liquid, Frequency=200 MHz	2.25994
365.93 K, 9015 kPa, Liquid, Frequency=200 MHz	2.33081
